Paper PMC9917184, “Synthesis and Biological Evaluation of Potential Oncoimmunomodulator Agents” (International Journal of Molecular Sciences, 2023)
Where two headings read alike, the source gives them in different places.

Experiments:
HT-29 = HT-29 cell viability in co-culture with Jurkat T cells (flow cytometry count); type: cell-based, human; settings: 24 h; for viability at 100 µM: Homo sapiens, HT-29/Jurkat T co-culture, IFN-γ stimulated, read-out: percentage of living HT-29 cells relative to non-treated co-cultures
Method: The effect of the synthesized compounds on tumor cell proliferation in the presence of PD-1-expressing Jurkat T cells was also studied. This assay was carried out, as in the previous experiments, in the HT29, MCF7, and A549 cell lines (see Table 4). Interferon γ-stimulated cancer cells were treated for 24 h with the compounds at 100 μM in presence of Jurkat T cells. Then, cells were counted using flow cytometry. The percentage of living cells relative to non-treated co-cultures (control) was established for both cancer and immune cells in every co-culture.
(§1) To study the effect of the compounds on the cell viability in co-culture with Jurkat T cells or THP-1 cells, 10^5 or 2 × 10^5 of the corresponding cancer cells line per well were seeded and incubated for 24 h, then the medium was changed by one cell culture medium supplemented with IFN-γ (10 ng/mL; human, Invitrogen®) and containing 5 × 10^5 or 10^5 Jurkat T cells or THP-1, respectively, per well and 100 µM of the corresponding compound or DMSO for the […] control. After 24 h/48 h of incubation, supernatants were collected to determine Jurkat T or THP-1 living cells, and on the other hand, corresponding cancer cells were collected with trypsin. Both types of suspension cells were fixed with 4% in PBS paraformaldehyde and counted by flow cytometry.

MCF-7 = MCF-7 cell viability in co-culture with THP-1 cells; type: cell-based, human; settings: for viability at 100 µM / inhibition at 100 µM: Homo sapiens; for viability at 100 µM: read-out: cancer cell viability (MCF-7); for inhibition at 100 µM: MCF7, read-out: cancer cell inhibition (MCF-7)
Method: The effect of the synthesized compounds on tumor cell proliferation in the presence of human monocytic leukemia cell line THP-1 was also studied. This assay was carried out using MCF-7 as the cancer cell line and different proportions of immune cells. Standard proportions for this assay were 1:5 cancer/immune, and we also carried out this assay using a 2:1 proportion of cancer cells as regards immune THP-1 cells. Assays were performed after 24 and 48 h of treatment and using 100 μM doses of selected compounds.
as §1

c-Myc = assay: Total c-Myc relative quantification by flow cytometry in cancer cell lines; type: cell-based, human
PD-L1 = PD-L1 (Homo sapiens, UniProt Q9NZQ7); assay: Total PD-L1 relative quantification by flow cytometry in cancer cell lines; type: cell-based; set-up: Alexa Fluor® 647 Rabbit monoclonal Anti-PD-L1 (ab215251); endogenous in cells; host or cells: HT-29
[1] = MCF7, 24 h, 1:5 MCF-7/THP-1, 100 μM, 24 h, control = 100
[2] = MCF7, 24 h, 2:1 MCF-7/THP-1, 100 μM, 24 h, control = 100
[3] = MCF7, 48 h, 1:5 MCF-7/THP-1, 100 μM, 48 h, control = 100
[4] = MCF7, 48 h, 2:1 MCF-7/THP-1, 100 μM, 48 h, control = 100

Sequence of PD-L1 (Q9NZQ7 19-290): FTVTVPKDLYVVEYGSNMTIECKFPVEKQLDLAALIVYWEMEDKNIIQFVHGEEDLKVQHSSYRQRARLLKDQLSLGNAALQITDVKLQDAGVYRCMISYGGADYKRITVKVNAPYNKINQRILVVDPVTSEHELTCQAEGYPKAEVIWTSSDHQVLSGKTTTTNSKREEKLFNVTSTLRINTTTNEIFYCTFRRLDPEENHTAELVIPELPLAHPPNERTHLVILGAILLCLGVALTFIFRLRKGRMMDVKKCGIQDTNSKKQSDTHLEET

Row | SMILES | viability at 100 µM (HT-29) | viability at 100 µM (MCF-7; [1]) | viability at 100 µM (MCF-7; [2]) | viability at 100 µM (MCF-7; [3]) | viability at 100 µM (MCF-7; [4]) | inhibition rate of HT-29 cell viability (HT-29; co-cultured with Jurkat T cells, 100 μM) | % c-Myc (c-Myc; HT-29, dose 10 µM) | % c-Myc (c-Myc; HT-29, dose 25 µM) | % c-Myc (c-Myc; HT-29, dose 50 µM) | % c-Myc (c-Myc; MCF-7, dose 10 µM) | % c-Myc (c-Myc; MCF-7, dose 25 µM) | % c-Myc (c-Myc; MCF-7, dose 50 µM) | remaining activity at 10 µM (PD-L1; 24 h, HT-29, dose 10 µM) | remaining activity at 25 µM (PD-L1; 24 h, HT-29, dose 25 µM) | remaining activity at 50 µM (PD-L1; 24 h, HT-29, dose 50 µM) | remaining activity at 10 µM (PD-L1; MCF7, 24 h, MCF-7, dose 10 µM) | remaining activity at 25 µM (PD-L1; MCF7, 24 h, MCF-7, dose 25 µM) | remaining activity at 50 µM (PD-L1; MCF7, 24 h, MCF-7, dose 50 µM) | cancer cell viability (MCF-7) (MCF-7; 1:5 MCF-7/THP-1, 100 μM, 24 h, control = 100, 100 µM) | inhibition at 100 µM (MCF-7; 2:1 MCF-7/THP-1, 100 μM, 48 h)
1 | Cc1c(COc2ccc(CN3CCCCC3C(=O)O)cc2Br)cccc1-c1ccccc1 (stereo not shown) [BMS-8, reference compound] | 34 ± 5% | 91 ± 30% | 100 ± 4% | 42 ± 5% | 58 ± 10% | – | – | – | – | – | – | – | – | – | – | – | – | – | – | –
2 | COc1ccc(C(OCCc2ccc(CCn3cc(-c4ccc(Br)cc4)nn3)cc2)(c2ccccc2)c2ccc(OC)cc2)cc1 [Compound 3, 1-(4-(2-(bis(4-methoxyphenyl)(phenyl)methoxy)ethyl)phenethyl)-4-(4-bromophenyl)-1H-1,2,3-triazole] | 111 ± 5% | 50% | 83 ± 9% | 28 ± 2% | 51 ± 17% | not active | 109 ± 9% | 100 ± 3% | 88 ± 5% | 56 ± 5% | 62 ± 5% | 75 ± 9% | 101 ± 2% | 111 ± 4% | 90 ± 3% | 52 ± 2% | 58 ± 3% | 69 ± 4% | 52 ± 7% | 50%
3 | COc1ccc(C(OCCc2ccc(CCn3cc(-c4cccc(Br)c4)nn3)cc2)(c2ccccc2)c2ccc(OC)cc2)cc1 [Compound 5, 1-(4-(2-(bis(4-methoxyphenyl)(phenyl)methoxy)ethyl)phenethyl)-4-(3-bromophenyl)-1H-1,2,3-triazole] | 68 ± 3% | 52 ± 4% | 107 ± 3% | 42 ± 10% | 69 ± 10% | – | – | – | – | – | – | – | – | – | – | – | – | – | – | 30%
4 | COc1ccc(C(OCCc2ccc(CCn3cc(-c4ccccc4Br)nn3)cc2)(c2ccccc2)c2ccc(OC)cc2)cc1 [Compound 7, 1-(4-(2-(bis(4-methoxyphenyl)(phenyl)methoxy)ethyl)phenethyl)-4-(2-bromophenyl)-1H-1,2,3-triazole] | 52 ± 6% | 42 ± 10% | 92 ± 11% | 41 ± 10% | 60 ± 13% | – | – | – | – | – | – | – | – | – | – | – | – | – | – | 40%
